Source: BindingDB's records for patent US12479887 (Purdue Research Foundation, 2025)

Biological target: T1, N-terminal Xaa-Pro-Lys N-methyltransferase 1 (Homo sapiens, UniProt Q9BV86)
T1 sequence (Q9BV86 whole entry): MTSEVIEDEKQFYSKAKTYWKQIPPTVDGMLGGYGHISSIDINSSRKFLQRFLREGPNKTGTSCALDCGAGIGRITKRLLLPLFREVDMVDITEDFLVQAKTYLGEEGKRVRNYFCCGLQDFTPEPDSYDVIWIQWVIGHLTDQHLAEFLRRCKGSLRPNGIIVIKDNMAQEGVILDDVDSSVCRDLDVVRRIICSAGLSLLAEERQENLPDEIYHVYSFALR
Test: Not found

In the case of `N=C(N)NCCC[C@H](NC(=O)[C@H](CCCCN)N1CCC[C@H]1C(N)=O)C(=O)N[C@@H](Cc1c[nH]c2ccccc12)C(N)=O` [US12479887, Compound 43], the IC50 is reported as 95 nM.
